Earlier results on 1 compound are cited in patent publication US20090105632A1 (priority 2007, published 2009).

The conditions of data set [1]: 10 mM citrate buffer at pH 5.
The conditions of data set [2]: oral route, metabolized by the liver.
Data set [3] relates to Parkinson's disease. To be noted: lisuride administration at about 1.1 mg/day.

For `CCN(CC)C(=O)N[C@H]1C=C2c3cccc4[nH]cc(c34)C[C@H]2N(C)C1` [lisuride, N′-[(8α)-9,10-didehydro-6-methylergolin-8-yl]-N,N-diethylurea], the pKa entry is reported as “about 8”. Further, the solubility entry in data set [1] is on record as “about 1.8 mg/ml”. Besides, the bioavailability entry in data set [2] was “about 25%”. For the same compound, the antiparkinsonian response entry in data set [3] is “equal to that achieved with doses of levopoda monotherapy of 668 mg/day”.
